melting point [°C] | SMILES
175 to 177 | Cc1ccc(Cl)cc1Nc1cc(Cl)nc(N)n1 [Compound 19, 6-Chloro-4-(N-(5-chloro-2-methyl)phenyl)-2,4-pyrimidinediamine]
222 to 223 | COc1ccc(Nc2cc(Cl)nc(N)n2)cc1 [Compound 4, 6-Chloro-4-(N-(4-methoxy)phenyl)-2,4-pyrimidinediamine]
173 to 175 | Cc1ccc(C)c(Nc2cc(Cl)nc(N)n2)c1 [Compound 18, 6-Chloro-4-(N-(2,5-dimethyl)phenyl)-2,4-pyrimidinediamine]
182 to 184 | COc1ccc(OC)c(Nc2cc(Cl)nc(N)n2)c1 [Compound 5, 6-Chloro-4-(N-(2,5-dimethoxy)phenyl)-2,4-pyrimidinediamine]
179 to 180 | Cc1ccc(Nc2cc(Cl)nc(N)n2)cc1C [Compound 21, 6-Chloro-4-(N-(3,4-dimethyl)phenyl)-2,4-pyrimidinediamine]
178 to 180 | COc1cccc(Nc2cc(Cl)nc(N)n2)c1 [Compound 3, 6-Chloro-4-(N-(3-methoxy)phenyl)-2,4-pyrimidinediamine]
178 to 180 | Cc1ccc(Nc2cc(Cl)nc(N)n2)c(C)c1 [Compound 20, 6-Chloro-4-(N-(2,4-dimethyl)phenyl)-2,4-pyrimidinediamine]
245 to 247 | COc1cc(Nc2cc(Cl)nc(N)n2)ccc1C [Compound 6, 6-Chloro-4-(N-(3-methoxy-4-methyl)phenyl)-2,4-pyrimidinediamine]

The remaining lines, values behind:

SMILES | melting point [°C]
Nc1nc(Cl)cc(N2CCNCC2)n1 [Compound 24, 4-Chloro-6-(1-piperazinyl)-2-pyrimidinylamine] | > 300
Nc1nc(Cl)cc(Nc2cccc(Cl)c2)n1 [Compound 13, 6-Chloro-4-(N-(3-chloro)phenyl)-2,4-pyrimidinediamine] | 177 to 179
Nc1nc(Cl)cc(Nc2ccc(Cl)cc2)n1 [Compound 12, 6-Chloro-4-(N-(4-chloro)phenyl)-2,4-pyrimidinediamine] | 182 to 184
CC(C)c1ccccc1Nc1cc(Cl)nc(N)n1 [Compound 16, 6-Chloro-4-(N-(2-isopropyl)phenyl)-2,4-pyrimidinediamine] | 170 to 172
Nc1nc(Cl)cc(Nc2cccc(Br)c2)n1 [Compound 11, 6-Chloro-4-(N-(3-bromo)phenyl)-2,4-pyrimidinediamine] | 180 to 182
COc1ccccc1Nc1cc(Cl)nc(N)n1 [Compound 2, 6-Chloro-4-(N-(2-methoxy)phenyl)-2,4-pyrimidinediamine] | 240 to 242
CCCCOc1ccc(Nc2cc(Cl)nc(N)n2)cc1 [Compound 8, 6-Chloro-4-(N-(4-n-butoxy)phenyl)-2,4-pyrimidinediamine] | 180 to 182
Nc1nc(Cl)cc(NCc2cccnc2)n1 [Compound 26, 6-Chloro-4-(N-(3-pyridinyl)methyl)-2,4-pyrimidinediamine] | 210 to 212
CCc1ccc(Nc2cc(Cl)nc(N)n2)cc1 [Compound 22, 6-Chloro-4-(N-(4-ethyl)phenyl)-2,4-pyrimidinediamine] | 172 to 174
CCCCCCCCOc1ccc(Nc2cc(Cl)nc(N)n2)cc1 [Compound 9] | 185 to 187
Nc1nc(Cl)cc(NCc2ccco2)n1 [Compound 27, 6-Chloro-4-(N-(furan-2-yl)methyl)-2,4-pyrimidinediamine] | 140 to 142
Nc1nc(Cl)cc(Nc2ccc(Br)cc2)n1 [Compound 10, 6-Chloro-4-(N-(4-bromo)phenyl)-2,4-pyrimidinediamine] | 190 to 192
Nc1nc(Cl)cc(N2CCN(c3ccccc3)CC2)n1 [Compound 25, 6-Chloro-6-(4-phenyl-1-piprazinyl)-2-pyrimidine amine] | 200 to 202
CCCCc1ccc(Nc2cc(Cl)nc(N)n2)cc1 [Compound 23, 6-Chloro-4-(N-(4-n-butyl)phenyl)-2,4-pyrimidinediamine] | 175 to 177
Cc1cccc(Nc2cc(Cl)nc(N)n2)c1C [Compound 17, 6-Chloro-4-(N-(2,3-dimethyl)phenyl)-2,4-pyrimidinediamine] | 176 to 178
Nc1nc(Cl)cc(Nc2ccc(I)cc2)n1 [Compound 14, 6-Chloro-4-(N-(4-iodo)phenyl)-2,4-pyrimidinediamine] | 250 to 252
Nc1nc(Cl)cc(Nc2ccccc2)n1 [Compound 1, 6-Chloro-4-(N-phenyl)-2,4-pyrimidinediamine] | 175 to 177

From paper PMC9693052, “Synthesis of 2-Aminopyrimidine Derivatives and Their Evaluation as β-Glucuronidase Inhibitors: In Vitro and In Silico Studies” (Molecules, 2022)
